Measured values as given in BindingDB's records for doi:10.7270/Q2KP80J0 (The Scripps Research Institute Molecular Screening Center, 2007).

Biological target: T1, Ephrin type-B receptor 4 (Homo sapiens, UniProt P54760)
T1 sequence (P54760 whole entry): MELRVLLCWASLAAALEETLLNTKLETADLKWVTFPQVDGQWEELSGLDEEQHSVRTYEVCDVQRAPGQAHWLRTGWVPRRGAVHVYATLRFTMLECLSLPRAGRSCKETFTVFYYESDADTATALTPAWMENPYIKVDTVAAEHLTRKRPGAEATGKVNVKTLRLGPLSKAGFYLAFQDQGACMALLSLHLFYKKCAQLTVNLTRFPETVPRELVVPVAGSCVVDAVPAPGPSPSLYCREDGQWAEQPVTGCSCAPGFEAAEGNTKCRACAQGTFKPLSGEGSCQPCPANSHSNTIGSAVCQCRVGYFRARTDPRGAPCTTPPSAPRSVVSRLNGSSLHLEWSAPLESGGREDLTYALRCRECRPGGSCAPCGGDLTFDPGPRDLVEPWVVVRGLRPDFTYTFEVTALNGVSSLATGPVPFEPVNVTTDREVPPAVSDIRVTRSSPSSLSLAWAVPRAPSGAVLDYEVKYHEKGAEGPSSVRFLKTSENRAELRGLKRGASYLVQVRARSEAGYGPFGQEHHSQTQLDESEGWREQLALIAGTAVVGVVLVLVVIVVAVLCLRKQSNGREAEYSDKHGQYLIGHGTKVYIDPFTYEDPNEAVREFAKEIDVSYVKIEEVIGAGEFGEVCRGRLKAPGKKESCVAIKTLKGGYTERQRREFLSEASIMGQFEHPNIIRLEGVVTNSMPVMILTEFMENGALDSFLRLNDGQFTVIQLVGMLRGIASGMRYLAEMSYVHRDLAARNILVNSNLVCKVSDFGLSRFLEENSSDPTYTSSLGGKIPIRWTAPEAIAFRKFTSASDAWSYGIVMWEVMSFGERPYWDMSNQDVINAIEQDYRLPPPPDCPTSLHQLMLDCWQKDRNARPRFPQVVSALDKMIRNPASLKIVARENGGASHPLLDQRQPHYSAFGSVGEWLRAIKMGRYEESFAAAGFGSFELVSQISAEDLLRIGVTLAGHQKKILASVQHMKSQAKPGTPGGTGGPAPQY
Assay: EphB4-ephrin-B2 interaction antagonists, dose response, biochemical, TNYL-RAW peptide displacement (AID 835)

Compound	IC50 [µM]
Cc1cc(C)c(S(=O)(=O)NCc2cn3c(C)csc3n2)cc1C [2,4,5-trimethyl-N-[(3-methyl-6-imidazo[2,1-b]thiazolyl)methyl]benzenesulfonamide]	> 79.4
Cc1cc(=O)oc(C)c1C(=O)OCC(=O)c1ccc(Cl)cc1 [2,4-Dimethyl-6-oxo-6H-pyran-3-carboxylic acid 2-(4-chloro-phenyl)-2-oxo-ethyl ester]	> 79.4
CSc1cccc(-n2c(C)cc(C(N)=O)c2C)c1 [2,5-dimethyl-1-(3-methylsulfanylphenyl)pyrrole-3-carboxamide]	> 79.4
Cc1c2cc(O)c(=O)cc-2oc2cc(O)c(O)cc12 [2,6,7-Trihydroxy-9-methyl-xanthen-3-one]	3.6
CCCc1nnc(NC(=O)CN2C(=O)c3ccccc3S2(=O)=O)s1 [2-(1,1-dioxido-3-oxo-1,2-benzisothiazol-2(3H)-yl)-N-(5-propyl-1,3,4-thiadiazol-2-yl)acetamide]	> 79.4
CCOC(=O)c1cnc(Nc2nc3ccccc3o2)nc1CN1CCN(C)CC1 [2-(1,3-benzoxazol-2-ylamino)-4-[(4-methyl-1-piperazinyl)methyl]-5-pyrimidinecarboxylic acid ethyl ester]	> 79.4
O=C(COC(=O)C(Cc1ccccc1)NC(=O)c1ccco1)NC1CC1 (configuration not stated) [2-(2-furoylamino)-3-phenyl-propionic acid [2-(cyclopropylamino)-2-keto-ethyl] ester]	> 79.4
O=c1c2ccccc2nc(-c2ccoc2)n1CCc1ccccc1 [2-(3-furanyl)-3-(2-phenylethyl)-4-quinazolinone]	> 79.4
COc1cccc(C(C#N)N2CCOCC2)c1 (configuration not stated) [2-(3-methoxyphenyl)-2-(4-morpholinyl)acetonitrile]	> 79.4
O=C(CSc1nnc(-c2ccccn2)n1Cc1ccccc1)NC1CCCC1 [2-(4-Benzyl-5-pyridin-2-yl-4H-[1,2,4]triazol-3-ylsulfanyl)-N-cyclopentyl-acetamide]	> 79.4
Cc1c(NC(=O)COC(=O)C(c2ccc(Cl)cc2)C(C)C)c(=O)n(-c2ccccc2)n1C (configuration not stated) [2-(4-chlorophenyl)-3-methyl-butyric acid [2-keto-2-[(3-keto-1,5-dimethyl-2-phenyl-3-pyrazolin-4-yl)amino]ethyl] ester]	> 79.4
CCCc1nnc(NC(=O)CNc2ccc(F)cc2)s1 [2-(4-fluoroanilino)-N-(5-propyl-1,3,4-thiadiazol-2-yl)acetamide]	> 79.4
Cc1[nH]c2ccccc2c1/C=C1\N=C(c2ccc(F)cc2)OC1=O [2-(4-fluorophenyl)-4-[(2-methyl-1H-indol-3-yl)methylene]-1,3-oxazol-5(4H)-one]	> 79.4
CCCOC(=O)C(C)n1cnc2sc(C)c(C)c2c1=O (configuration not stated) [2-(4-keto-5,6-dimethyl-thieno[2,3-d]pyrimidin-3-yl)propionic acid propyl ester]	> 79.4
Cc1ccc(-c2nc3cccnc3o2)cc1NC(=O)COc1ccc(C(C)(C)C)cc1 [2-(4-tert-butylphenoxy)-N-(2-methyl-5-[1,3]oxazolo[5,4-b]pyridin-2-ylphenyl)acetamide]	> 79.4
CN(C)c1nccc(Nc2ccccc2)c1C#N [2-(dimethylamino)-4-phenylazanyl-pyridine-3-carbonitrile]	> 79.4
CN(C)c1nc2n(c(=O)n1)CCO2 [2-(dimethylamino)-6,7-dihydro-[1,3]oxazolo[3,2-a][1,3,5]triazin-4-one]	> 79.4
O=C(CN1C(=O)NC2(CCCC2)C1=O)NCCC1=CCCCC1 [2-[2,4-bis(oxidanylidene)-1,3-diazaspiro[4.4]nonan-3-yl]-N-[2-(cyclohexen-1-yl)ethyl]ethanamide]	> 79.4
O=C(NNC(=O)C1CCCCC1)C(=O)NC1CCCCC1 [2-[2-(cyclohexanecarbonyl)hydrazinyl]-N-cyclohexyl-2-oxoacetamide]	> 79.4
Cc1ccc(Nc2cnn(C34CC5CC(CC(CC(=O)O)(C5)C3)C4)c(=O)c2Cl)cc1 [2-[3-[5-chloro-4-(4-methylanilino)-6-oxo-1-pyridazinyl]-1-adamantyl]acetic acid]	> 79.4
CC(=O)Nc1ccc(SCC(=O)OCC(=O)NC(=O)NCc2ccco2)cc1 [2-[(4-acetamidophenyl)thio]acetic acid [2-(2-furfurylcarbamoylamino)-2-keto-ethyl] ester]	> 79.4

Compound	IC50 [µM]
Cn1cnnc1SCC(=O)Nc1ccc2nc(SCc3cccc4ccccc34)sc2c1 [2-[(4-methyl-1,2,4-triazol-3-yl)sulfanyl]-N-[2-(naphthalen-1-ylmethylsulfanyl)-1,3-benzothiazol-6-yl]acetamide]	> 79.4
CCCCCCOC(=O)C(C#N)c1nc2ccccc2nc1N1CCN(C)CC1 (configuration not stated) [2-cyano-2-[3-(4-methyl-1-piperazinyl)-2-quinoxalinyl]acetic acid hexyl ester]	> 79.4
CCC1CCCCN1C(=O)Nc1cccc(NC(=O)N2CCCCC2CC)c1 (configuration not stated) [2-ethyl-N-[3-[(2-ethylpiperidin-1-yl)carbonylamino]phenyl]piperidine-1-carboxamide]	> 79.4
Cc1cc(=O)n(CC(C)C)c(O)c1C#N [2-hydroxy-1-isobutyl-4-methyl-6-oxo-1,6-dihydro-3-pyridinecarbonitrile]	> 79.4
Cc1cccc(NC(=O)CSc2nnc(-c3ccc(S(=O)(=O)N4CCCC4)cc3)o2)c1 [2-{5-[4-(Pyrrolidine-1-sulfonyl)-phenyl]-[1,3,4]oxadiazol-2-ylsulfanyl}-N-m-tolyl-acetamide]	> 79.4
COc1ccc(C(=O)NN=C2SCC(=O)N2Cc2ccc3c(c2)OCO3)cc1OC [3,4-Dimethoxy-benzoic acid (3-benzo[1,3]dioxol-5-ylmethyl-4-oxo-thiazolidin-2-ylidene)-hydrazide]	> 79.4
N#Cc1ncc(C(F)(F)F)cc1Sc1ccc(N)cc1 [3-(4-aminophenyl)sulfanyl-5-(trifluoromethyl)pyridine-2-carbonitrile]	> 79.4
COc1ccc2[nH]c(=O)c(CN(Cc3ccccc3)Cc3nnnn3CC3CCCO3)cc2c1 (configuration not stated) [3-({Benzyl-[1-(tetrahydro-furan-2-ylmethyl)-1H-tetrazol-5-ylmethyl]-amino}-methyl)-6-methoxy-1H-quinolin-2-one]	> 79.4
C=CCn1c(C#N)c(N)sc1=N [3-Allyl-5-amino-2-imino-2,3-dihydro-thiazole-4-carbonitrile]	> 79.4
Cn1c(=O)c(NCCc2ccccc2)c2c3c(cccc31)C(=O)c1ccccc1-2 [3-Methyl-1-phenethylamino-3H-naphtho[1,2,3-de]quinoline-2,7-dione]	1
Cc1cc(C(=O)CN2C(=O)NC(c3ccccc3)(c3ccccc3)C2=O)c(C)n1Cc1ccccc1 [3-[2-(1-benzyl-2,5-dimethyl-pyrrol-3-yl)-2-keto-ethyl]-5,5-diphenyl-hydantoin]	> 79.4
Cc1cc(C)n2nc(SC3CCCCN(C(=O)c4ccc(F)cc4)C3=O)nc2n1 (configuration not stated) [3-[(5,7-dimethyl-[1,2,4]triazolo[1,5-a]pyrimidin-2-yl)sulfanyl]-1-(4-fluorobenzoyl)azepan-2-one]	> 79.4
CCOC(=O)c1oc2cccc(O)c2c1CN(Cc1ccccc1)C(C)=O [3-[[acetyl(benzyl)amino]methyl]-4-hydroxy-coumarilic acid ethyl ester]	> 79.4
CC1CCN(S(=O)(=O)c2cc(Br)cc(C(=O)NC3=NCCS3)c2)CC1 [3-bromanyl-N-(4,5-dihydro-1,3-thiazol-2-yl)-5-(4-methylpiperidin-1-yl)sulfonyl-benzamide]	> 79.4
Clc1cccc(CN=Nc2ncnc3ccccc23)c1 [3-chlorobenzenecarbaldehyde N-(4-quinazolinyl)hydrazone]	> 79.4
CC(C)CC(=O)NC(=S)NCCc1ccccc1 [3-methyl-N-(2-phenylethylcarbamothioyl)butanamide]	> 79.4
O=C(CCC1N=C2c3ccccc3N=C(SCc3ccc(F)cc3)N2C1=O)NCc1ccco1 (configuration not stated) [3-{5-[(4-fluorobenzyl)thio]-3-oxo-2,3-dihydroimidazo[1,2-c]quinazolin-2-yl}-N-(2-furylmethyl)propanamide]	> 79.4
O=C(CC(O)(c1ccccc1)C(F)(F)F)c1cccs1 (configuration not stated) [4,4,4-trifluoro-3-hydroxy-3-phenyl-1-(2-thienyl)-1-butanone]	> 79.4
CC1=C(C(=O)N2CCC3(CC2)OCCO3)C2(CCC(C)CC2)OC1=O (configuration not stated) [4-(1,4-dioxa-8-azaspiro[4.5]dec-8-ylcarbonyl)-3,8-dimethyl-1-oxaspiro[4.5]dec-3-en-2-one]	> 79.4
CN(c1ccc(Cl)cc1)c1cc(=O)n(C)c2ccccc12 [4-(4-chloro-N-methyl-anilino)-1-methyl-carbostyril]	> 79.4
CCOC(=O)N1CCC(n2c(SCC(=O)NCc3ccccc3)nc3ccccc3c2=O)CC1 [4-[2-[[2-(benzylamino)-2-keto-ethyl]thio]-4-keto-quinazolin-3-yl]piperidine-1-carboxylic acid ethyl ester]	> 79.4
